Reference: patent US5977156A (priority 1996, dated 1999)
In brackets after ≈: the same amount, converted by molar mass. Like-named read-outs stand apart in the source and are kept apart here.

What was measured:
[1] = system: Puccinia recondita forma speciae tritici; assay: Wheat seed treatment against brown rust; format: in vivo; details: wheat (Theseus), infected foliar area, control 61
Protocol: EXAMPLE 8 This example illustrates application against brown rust of wheat (Puccinia recondita forma speciae tritici).
Wheat seeds (variety Theseus) were treated in the proportion of 10, 25, 50 and 100 g of active material per 100 kg of seeds.
These seeds are sown in 7×7 cm pots filled with a peat/pozzolana mixture in the proportion of 40 to 50 seeds per pot.
These pots are maintained at 10° C. under artificial light for 3 weeks, so that they arrive at the growth stage known as the 1-2-leaf stage.
Infection is then carried out by spraying an aqueous suspension containing 100000 spores of Puccinia recondita per ml.
The pots are then placed at 20° C. and 100% relative humidity for 24 hours and then under glass, on sand kept moist by regular sprinkling, at 20° C. and 80% relative humidity for 10 days.
The infected foliar area of the 1st leaf is then quantified visually.
The results shown in the table below (expressed as percentage) are obtained. The control seedlings correspond to pots in which untreated wheat seeds have been sown, which seeds have been infected by the disease.

[2] = system: Helminthosporium oryzae (brown spot); assay: Rice seed treatment field trial, attack type 2 (brown spot); format: in vivo, also called Cochliobolus miyabeanus; details: vs insecticide-treated control plots, after 2 months
[3] = system: Rhynchosporium oryzae (leaf scald); assay: Rice seed treatment field trial, attack type 5 (leaf scald = leaf tip blight); format: in vivo; details: vs insecticide-treated control plots, after 2 months
[4] = system: Grain discoloration (Pseudomonas spp., Erwinia herbicola, Helminthosporium oryzae and/or Alternaria spp.); assay: Rice seed treatment field trial, attack type 7 (grain discoloration); format: in vivo; details: vs insecticide-treated control plots
[5] = system: Fusarium moniliforme; assay: Maize seed treatment against root rot; format: in vivo; details: maize (Pinnacle), control 92
Protocol: This example illustrates application against root rot (Fusarium moniliforme).
Maize seeds (variety Pinnacle) were treated in the proportion of 125 and 250 g of active material per 100 kg of seeds.
These seeds are sown in 7×7 cm pots filled with vermiculite in the proportion of 5 seeds per pot. Infection is carried out by introducing, into the vicinity of the seeds, in the upper part of the substrate, 10 ml of an aqueous suspension containing 400000 spores of Fusarium moniliforme per ml.
These pots are then maintained at 80% humidity for 3 weeks at 8° C. and then for 2 weeks at 16° C.
The seedlings carrying the disease (unemerged seedlings and seedlings with slowed and deformed growth) are then counted and the results shown in the table below (expressed as percentage) were obtained. The control seedlings correspond to pots in which untreated maize seeds have been sown, which seeds have been infected with the disease.

[6] = system: Pyricularia oryzae (leaf blast); format: in vivo, also called Magnaporthe grisae; details: vs insecticide-treated control plots, after 2 months
[7] = system: Coniophora puteana; assay: Inhibition of growth of wood-degrading fungus on agar; format: cell-based; details: agar culture medium, 20° C., read-out: IC50 (50% inhibition of the growth of the fungus)
Protocol: (§1) This example illustrates application against fungi which degrade wood.
(§2) Agar culture medium containing different doses of the active material to be tested is introduced into petri dishes.
(§3) Petri dishes with the same culture medium without the active material are prepared in order to act as control.
(§4) One day after the preparation of these petri dishes, agar implants supporting a fungal culture are deposited at the center of each petri dish. The fungi tested are: Serpula lacrymans, Coniophora puteana (dry and wet rots) and Gleophyllum trabeum.
(§5) The petri dishes are then placed at 20° C. until the results are recorded. The results are read when the untreated control culture has colonized virtually all the dish. The diameter of the fungal cultures is then measured and the concentration of active material causing 50% inhibition of the growth of the fungus (called the IC50) is calculated.

[8] = system: Serpula lacrymans; assay: as above; format: cell-based; details: agar culture medium, 20° C., read-out: IC50 (50% inhibition of the growth of the fungus)
Protocol: as §1, §2, §3, §4, §5

[9] = system: Gloeophyllum trabeum; assay: as above; format: cell-based; details: agar culture medium, 20° C., read-out: IC50 (50% inhibition of the growth of the fungus)
Protocol: as §1, §2, §3, §4, §5

[10] = system: Sheath rot (Acrocylindrium oryzae and/or Gaeumannomyces graminis and/or Helminthosporium oryzae); assay: Rice seed treatment field trial, attack type 6 (sheath rot); format: in vivo; details: vs insecticide-treated control plots, after 2 months
[11] = system: Rhizoctonia solani (sheath blight); assay: Rice seed treatment field trial, attack type 1 (sheath blight); format: in vivo, also called Pellicularia sasakii; details: vs insecticide-treated control plots, after 2 months
[12] = system: Pyrenophora graminea; assay: Barley seed treatment against leaf stripe; format: in vivo; details: barley (Agneta), naturally infected, 100 g/100 kg seeds
Protocol: This example illustrates application against leaf stripe (Pyrenophora graminea).
Barley seeds (variety Agneta), naturally infected with Pyrenophora graminea, were treated in the proportion of 100 g of active material per 100 kg of seeds.
(§6) These seeds are sown in 7×7 cm pots filled with a peat/pozzolana mixture in the proportion of 25 seeds per pot.
These pots are maintained at 5° C. and in darkness for 3 weeks and are then placed at 10° C. under artificial light for 1 week. They are finally placed under glass, on sand kept moist by regular sprinkling, at 20° C. and 60% relative humidity for 3 weeks.
The seedlings carrying the disease (seedlings carrying off-white streaks along the leaves) are then counted and the following results (expressed as percentage) are obtained. The control seedlings correspond to pots in which barley seeds, naturally infected with the disease, have been sown, which seeds have not been treated. Two successive tests were carried out.

[13] = system: Pyricularia oryzae (neck blast); format: in vivo; details: vs insecticide-treated control plots, after 2 months
[14] = system: Rhizoctonia solani; assay: Cotton seed treatment against damping off; format: in vivo; details: cotton (DP 50), 17 days; for Total damping off (in %): pre-+post-emergence, control 80; for Pre-emergence damping off (in %): control 70
Protocol: This example illustrates application against damping off (Rhizoctonia solani).
Cotton seeds (variety DP 50) were treated in the proportion of 125, 250 and 500 g of active material per 100 kg of seeds.
These seeds are sown in 7×7 cm pots filled with a peat/pozzolana mixture which has been pre-infected by incorporation of 1 part of an aqueous suspension containing milled Rhizoctonia solani mycelium in 1600 parts of substrate. Each pot contains 5 cotton seeds.
These pots are then placed under glass at a temperature of 25° C. and at a relative humidity of 80% for 17 days.
The results with respect to early damping off (pre-emergence) and with respect to all the damping off attacks (pre-+post-emergence) are shown in the table below (expressed as percentage). The control seedlings correspond to pots filled with a substrate infected with the disease in which untreated cotton seeds have been sown.

[15] = system: Microdochium nivale; assay: Wheat seed treatment against snow mould; format: in vivo; details: wheat (Ixos), naturally infected, control 96
Protocol: This example illustrates application against snow mould (Microdochium nivale).
Wheat seeds (variety Ixos), naturally infected with Microdochium nivale, were treated in the proportion of 5, 10, 25, 50 and 100 g of active material per 100 kg of seeds.
as §6
These pots are maintained at 5° C. and in darkness for 3 weeks and are then placed at 10° C. under artificial light for 1 week. They are finally placed under glass, on sand kept moist by regular sprinkling, at 20° C. and 60% relative humidity for 1 week.
The seedlings carrying the disease (unemerged seedlings and deformed seedlings) are then counted and the results shown in the table below (expressed as percentage) are obtained. The control seedlings correspond to pots in which wheat seeds, naturally infected with the disease, have been sown, which seeds have not been treated.

[16] = system: Sphacelotheca reiliana; assay: Maize seed treatment against head smut; format: in vivo; details: maize (Adonis), 250 g/100 kg seeds, 3 months after sowing
Protocol: This example illustrates application against head smut (Sphacelotheca reiliana).
Maize seeds (variety Adonis) were treated in the proportion of 250 g of active material per 100 kg of seeds.
These seeds are sown in 9×9 cm pots filled with a mixture of compost and coarse sand which has been pre-infected by incorporation of Sphacelotheca reiliana spores according to 2 infectious doses: […] of substrate. Each pot contains 5 maize seeds.
These pots are then placed under glass on sand kept moist by regular sprinkling, at a temperature of 20° C. and a relative humidity of 60%.
Three months after sowing, the seedlings carrying the disease (presence or absence of smut in the maize inflorescences) are counted and the results shown in the table below (expressed as percentage) are obtained. The control seedlings correspond to pots filled with a substrate infected with the disease in which untreated maize seeds have been sown.

[17] = Ex. 1: 40 g/100 kg rice seed, 150 kg/ha
[18] = Ex. 2: 40 g/100 kg rice seed, 200 kg/ha
[19] = Ex. 3: 40 g/100 kg rice seed, 150 kg/ha, pregerminated
[20] = Ex. 4: 40 g/100 kg rice seed, 200 kg/ha, pregerminated

N#Cc1nn(-c2c(Cl)cc(C(F)(F)F)cc2Cl)c(N)c1[S+]([O-])C(F)(F)F (stereo not shown) [Compound A, 5-amino-3-cyano-1-(2,6-dichloro-4-trifluoromethyl)phenyl-4-trifluoromethylsulfinylpyrazole]
Infection of the 1st leaf (in %) ([1]; 10 g/100 kg seeds): 47%
Infection of the 1st leaf (in %) ([1]; 25 g/100 kg seeds): 37%
Infection of the 1st leaf (in %) ([1]; 50 g/100 kg seeds): 17%
Infection of the 1st leaf (in %) ([1]; 100 g/100 kg seeds): 2%
area of leaves attacked; result observed, expressed as percentage [2, 17]: 79 percentage
area of leaves attacked; result observed, expressed as percentage [2, 18]: 87 percentage
area of leaves attacked; result observed, expressed as percentage [2, 19]: 79 percentage
area of leaves attacked; result observed, expressed as percentage [2, 20]: 87 percentage
number of leaves having a withered part; result observed, expressed as percentage [3, 17]: 57 percentage
number of leaves having a withered part; result observed, expressed as percentage [3, 18]: 63 percentage
number of leaves having a withered part; result observed, expressed as percentage [3, 19]: 57 percentage
number of leaves having a withered part; result observed, expressed as percentage [3, 20]: 63 percentage
number of grains in which the normal yellow color is replaced by brown blemishes; result observed, expressed as percentage [4, 17]: 63 percentage
number of grains in which the normal yellow color is replaced by brown blemishes; result observed, expressed as percentage [4, 18]: 70 percentage
number of grains in which the normal yellow color is replaced by brown blemishes; result observed, expressed as percentage [4, 19]: 63 percentage
number of grains in which the normal yellow color is replaced by brown blemishes; result observed, expressed as percentage [4, 20]: 70 percentage
Number of diseased seedlings (in %) ([5]; 125 g/100 kg seeds): 72%
Number of diseased seedlings (in %) ([5]; 250 g/100 kg seeds): 76%
number of sheaths attacked; result observed, expressed as percentage [6, 17]: 82 percentage
number of sheaths attacked; result observed, expressed as percentage [6, 18]: 90 percentage
number of sheaths attacked; result observed, expressed as percentage [6, 19]: 82 percentage
number of sheaths attacked; result observed, expressed as percentage [6, 20]: 90 percentage
IC50 [7]: 16.3 µg/mL (≈ 37.3 µM)
IC50 [8]: 14.5 µg/mL (≈ 33.2 µM)
IC50 [9]: 0.3 µg/mL (≈ 0.686 µM)
number of sheaths attacked; result observed, expressed as percentage [10, 17]: 80 percentage
number of sheaths attacked; result observed, expressed as percentage [10, 18]: 88 percentage
number of sheaths attacked; result observed, expressed as percentage [10, 19]: 80 percentage
number of sheaths attacked; result observed, expressed as percentage [10, 20]: 88 percentage
number of sheaths attacked; result observed, expressed as percentage [11, 17]: 55 percentage
number of sheaths attacked; result observed, expressed as percentage [11, 18]: 60 percentage
number of sheaths attacked; result observed, expressed as percentage [11, 19]: 55 percentage
number of sheaths attacked; result observed, expressed as percentage [11, 20]: 60 percentage
Number of diseased seedlings (in %) ([12]; Test No. 1, control 50): 34%
Number of diseased seedlings (in %) ([12]; Test No. 2, control 44): 29%
number of plants attacked just below the ear; result observed, expressed as percentage [13, 17]: 35 percentage
number of plants attacked just below the ear; result observed, expressed as percentage [13, 18]: 39 percentage
number of plants attacked just below the ear; result observed, expressed as percentage [13, 19]: 35 percentage
number of plants attacked just below the ear; result observed, expressed as percentage [13, 20]: 39 percentage
Total damping off (in %) ([14]; 125 g/100 kg seeds): 50%
Pre-emergence damping off (in %) ([14]; 125 g/100 kg seeds): 45%
Total damping off (in %) ([14]; 250 g/100 kg seeds): 60%
Pre-emergence damping off (in %) ([14]; 250 g/100 kg seeds): 45%
Total damping off (in %) ([14]; 500 g/100 kg seeds): 50%
Pre-emergence damping off (in %) ([14]; 500 g/100 kg seeds): 10%
Number of diseased seedlings (in %) ([15]; 5 g/100 kg seeds): 89%
Number of diseased seedlings (in %) ([15]; 10 g/100 kg seeds): 82%
Number of diseased seedlings (in %) ([15]; 25 g/100 kg seeds): 89%
Number of diseased seedlings (in %) ([15]; 50 g/100 kg seeds): 85%
Number of diseased seedlings (in %) ([15]; 100 g/100 kg seeds): 80%
Number of diseased seedlings (in %) ([16]; infectious dose 0.125 g/kg, control 67): 46%
Number of diseased seedlings (in %) ([16]; infectious dose 0.25 g/kg, control 71): 40%
